{"source": "paper PMC8286840", "about": "“Identifying SARS-CoV-2 antiviral compounds by screening for small molecule inhibitors of Nsp3 papain-like protease” (Biochemical Journal, 2021)", "key": {"[1]": {"target": "T1, SARS-CoV-2 PLpro (nsp3 1564–1878) (Severe acute respiratory syndrome coronavirus 2, UniProt P0DTD1)", "assay": "biochemical", "set-up": "FRET-quenched peptide (Pro3) cleavage by PLpro, 10 min pre-incubation, slope over 20 min, normalised to no-compound control", "conditions": "high concentration screen, read-out: % of control remaining"}, "[2]": {"target": "T1, SARS-CoV-2 PLpro (nsp3 1564–1878)", "assay": "biochemical", "set-up": "FRET-quenched peptide (Pro3) cleavage by PLpro, 10 min pre-incubation, slope over 20 min, normalised to no-compound control", "conditions": "low concentration screen, read-out: % of control remaining"}}, "note": "Structures can show the parent of a compound that is named as a salt. Where two headings read alike, the source gives them in different places."}
{"smiles": "COc1ccc(CCCn2ncc3c2nc(N)n2nc(-c4ccco4)nc32)cc1", "note": "[SCH-442416]", "values": [{"measurement": "remaining activity at 3.75 µM", "setting": "[1]; Well no.=5870", "result": 97.4, "unit": "%"}, {"measurement": "remaining activity at 1.25 µM", "setting": "[2]; Well no.=5870", "result": 98.1, "unit": "%"}]}
{"smiles": "NC(=O)c1ccc2[nH]ccc2c1", "note": "[SD169]", "values": [{"measurement": "remaining activity at 3.75 µM", "setting": "[1]; Well no.=2797", "result": 106, "unit": "%"}, {"measurement": "remaining activity at 1.25 µM", "setting": "[2]; Well no.=2797", "result": 106, "unit": "%"}]}
{"smiles": "Fc1ccc(Cl)cc1-c1nc(Nc2ccncc2)c2nccnc2n1", "note": "[SD 208 - 2-(5-Chloro-2-fluorophenyl)-4-[(4-pyridyl)amino]pteridine]", "values": [{"measurement": "remaining activity at 3.75 µM", "setting": "[1]; Well no.=2680", "result": 99.7, "unit": "%"}, {"measurement": "remaining activity at 1.25 µM", "setting": "[2]; Well no.=2680", "result": 97.3, "unit": "%"}]}
{"smiles": "O=C(CO)N1CCC(c2n[nH]c(-c3ccc(Cl)cc3)c2-c2ccncn2)CC1", "note": "[SD-06]", "values": [{"measurement": "remaining activity at 3.75 µM", "setting": "[1]; Well no.=2897", "result": 97, "unit": "%"}, {"measurement": "remaining activity at 1.25 µM", "setting": "[2]; Well no.=2897", "result": 99.5, "unit": "%"}]}
{"smiles": "CCN(CC)CCOC(=O)c1cc(Cl)c(N)cc1OC", "note": "[SDZ-205,557 hydrochloride]", "values": [{"measurement": "remaining activity at 3.75 µM", "setting": "[1]; Well no.=1327", "result": 100, "unit": "%"}, {"measurement": "remaining activity at 1.25 µM", "setting": "[2]; Well no.=1327", "result": 101, "unit": "%"}]}
{"smiles": "Cc1cc(Nc2ccc(NC(=O)c3ccc(Nc4ccnc5ccccc45)cc3)cc2)nc(N)n1", "note": "[SGI-1027]", "values": [{"measurement": "remaining activity at 3.75 µM", "setting": "[1]; Well no.=5518", "result": 102, "unit": "%"}, {"measurement": "remaining activity at 1.25 µM", "setting": "[2]; Well no.=5518", "result": 105, "unit": "%"}]}
{"smiles": "CN1CCC(CNc2ccc3ncc(-c4cccc(OC(F)(F)F)c4)n3n2)CC1", "note": "[SGI-1776 free base]", "values": [{"measurement": "remaining activity at 3.75 µM", "setting": "[1]; Well no.=4818", "result": 86.2, "unit": "%"}, {"measurement": "remaining activity at 1.25 µM", "setting": "[2]; Well no.=4818", "result": 88.4, "unit": "%"}]}
{"smiles": "Cn1cc(-c2ccc3nnc(Sc4ccc5ncccc5c4)n3n2)cn1", "note": "[SGX-523]", "values": [{"measurement": "remaining activity at 3.75 µM", "setting": "[1]; Well no.=4665", "result": 106, "unit": "%"}, {"measurement": "remaining activity at 1.25 µM", "setting": "[2]; Well no.=4665", "result": 104, "unit": "%"}]}
{"smiles": "Cc1ccc(O)c(N=Nc2ccccc2)n1", "note": "[SIB 1757]", "values": [{"measurement": "remaining activity at 3.75 µM", "setting": "[1]; Well no.=1371", "result": 102, "unit": "%"}, {"measurement": "remaining activity at 1.25 µM", "setting": "[2]; Well no.=1371", "result": 99.7, "unit": "%"}]}
{"smiles": "Cc1cccc(/C=C/c2ccccc2)n1", "note": "[SIB 1893]", "values": [{"measurement": "remaining activity at 3.75 µM", "setting": "[1]; Well no.=1419", "result": 95.7, "unit": "%"}, {"measurement": "remaining activity at 1.25 µM", "setting": "[2]; Well no.=1419", "result": 96.6, "unit": "%"}]}
{"smiles": "CCOc1cc(/C=C2/C(=O)N(c3ccccc3)N=C2C)cc(Cl)c1OCC(=O)OC", "note": "[SJ-172550]", "values": [{"measurement": "remaining activity at 3.75 µM", "setting": "[1]; Well no.=6354", "result": 90.9, "unit": "%"}, {"measurement": "remaining activity at 1.25 µM", "setting": "[2]; Well no.=6354", "result": 91.1, "unit": "%"}]}
{"smiles": "CN1CCc2cc(O)c(O)cc2C(c2ccccc2)C1", "note": "(centres unmarked) [SKF 75670 hydrobromide]", "values": [{"measurement": "remaining activity at 3.75 µM", "setting": "[1]; Well no.=1360", "result": 105, "unit": "%"}, {"measurement": "remaining activity at 1.25 µM", "setting": "[2]; Well no.=1360", "result": 103, "unit": "%"}]}
{"smiles": "CN1CCc2c(cc(O)c(O)c2Cl)C(c2cccc(Cl)c2)C1", "note": "(centres unmarked) [SKF 83565 hydrobromide]", "values": [{"measurement": "remaining activity at 3.75 µM", "setting": "[1]; Well no.=1504", "result": 97.3, "unit": "%"}, {"measurement": "remaining activity at 1.25 µM", "setting": "[2]; Well no.=1504", "result": 94.9, "unit": "%"}]}
{"smiles": "Cc1cccc(C2CN(C)CCc3c2cc(O)c(O)c3Cl)c1", "note": "(centres unmarked) [SKF 83959 hydrobromide]", "values": [{"measurement": "remaining activity at 3.75 µM", "setting": "[1]; Well no.=1264", "result": 108, "unit": "%"}, {"measurement": "remaining activity at 1.25 µM", "setting": "[2]; Well no.=1264", "result": 106, "unit": "%"}]}
{"smiles": "CN1CCc2cccc(Cl)c2CC1", "note": "[SKF 86466]", "values": [{"measurement": "remaining activity at 3.75 µM", "setting": "[1]; Well no.=1214", "result": 97.9, "unit": "%"}, {"measurement": "remaining activity at 1.25 µM", "setting": "[2]; Well no.=1214", "result": 101, "unit": "%"}]}
{"smiles": "CN1Cc2sccc2C(c2ccc(O)c(O)c2)C1", "note": "(centres unmarked) [SKF 89145 hydrobromide]", "values": [{"measurement": "remaining activity at 3.75 µM", "setting": "[1]; Well no.=1218", "result": 98.3, "unit": "%"}, {"measurement": "remaining activity at 1.25 µM", "setting": "[2]; Well no.=1218", "result": 92.6, "unit": "%"}]}
{"smiles": "Oc1ccc(C2CNCc3sccc32)cc1O", "note": "(centres unmarked) [SKF 89626]", "values": [{"measurement": "remaining activity at 3.75 µM", "setting": "[1]; Well no.=1456", "result": 99.7, "unit": "%"}, {"measurement": "remaining activity at 1.25 µM", "setting": "[2]; Well no.=1456", "result": 98.5, "unit": "%"}]}
{"smiles": "O=C(O)C1CCCN(CCC=C(c2ccccc2)c2ccccc2)C1", "note": "(centres unmarked) [SKF 89976A hydrochloride]", "values": [{"measurement": "remaining activity at 3.75 µM", "setting": "[1]; Well no.=1323", "result": 102, "unit": "%"}, {"measurement": "remaining activity at 1.25 µM", "setting": "[2]; Well no.=1323", "result": 99.7, "unit": "%"}]}
{"smiles": "CN(C)CCCCSC(=N)N", "note": "[SKF 91488 dihydrochloride]", "values": [{"measurement": "remaining activity at 3.75 µM", "setting": "[1]; Well no.=1421", "result": 98.7, "unit": "%"}, {"measurement": "remaining activity at 1.25 µM", "setting": "[2]; Well no.=1421", "result": 100, "unit": "%"}]}
{"smiles": "COc1ccc(CCCOC(Cn2ccnc2)c2ccc(OC)cc2)cc1", "note": "(centres unmarked) [SKF 96365]", "values": [{"measurement": "remaining activity at 3.75 µM", "setting": "[1]; Well no.=1412", "result": 100, "unit": "%"}, {"measurement": "remaining activity at 1.25 µM", "setting": "[2]; Well no.=1412", "result": 98.9, "unit": "%"}]}
{"smiles": "CP(=O)(O)CCCN", "note": "[SKF 97541 hydrochloride]", "values": [{"measurement": "remaining activity at 3.75 µM", "setting": "[1]; Well no.=66", "result": 98.7, "unit": "%"}, {"measurement": "remaining activity at 1.25 µM", "setting": "[2]; Well no.=66", "result": 97.4, "unit": "%"}]}
{"smiles": "CCCC(C(=O)OCCN(CC)CC)(c1ccccc1)c1ccccc1", "note": "[SKF-525A hydrochloride]", "values": [{"measurement": "remaining activity at 3.75 µM", "setting": "[1]; Well no.=902", "result": 101, "unit": "%"}, {"measurement": "remaining activity at 1.25 µM", "setting": "[2]; Well no.=902", "result": 105, "unit": "%"}]}
{"smiles": "C=CCN1CCc2c(cc(O)c(O)c2Cl)C(c2ccccc2)C1", "note": "(centres unmarked) [SKF-82958 (hydrobromide)]", "values": [{"measurement": "remaining activity at 3.75 µM", "setting": "[1]; Well no.=7905", "result": 101, "unit": "%"}, {"measurement": "remaining activity at 1.25 µM", "setting": "[2]; Well no.=7905", "result": 105, "unit": "%"}]}
{"smiles": "Fc1ccc(-c2nc3n(c2-c2ccncc2)CCS3)cc1", "note": "[SKF-86002]", "values": [{"measurement": "remaining activity at 3.75 µM", "setting": "[1]; Well no.=2652", "result": 97.9, "unit": "%"}, {"measurement": "remaining activity at 1.25 µM", "setting": "[2]; Well no.=2652", "result": 96.2, "unit": "%"}]}
{"smiles": "COc1cc2ncnc(Sc3nnc(C)s3)c2cc1OC", "note": "[SKLB1002]", "values": [{"measurement": "remaining activity at 3.75 µM", "setting": "[1]; Well no.=5943", "result": 102, "unit": "%"}, {"measurement": "remaining activity at 1.25 µM", "setting": "[2]; Well no.=5943", "result": 102, "unit": "%"}]}
